Data: patent publication US5874597A, “Certain aminosterol compounds and pharmaceutical compositions including these compounds” (priority 1995, dated 1999)
“Also recorded” adds a separate entry of the source.

How the values were obtained:
[1] = test system: vitelline capillaries of chick embryo; test: chick embryo vitelline capillary regression assay; format: in vivo
Experimental: Using the chick embryo vitelline capillaries assay, compounds were tested for their ability to induce capillary regression. Each compound was applied in 0.1 ml of 15% Ficol 400 and PBS onto the embryo, and vascular regression was assessed after 60 minutes.
The 3-day chick embryo consists of an embryonic disc from which numerous vessels emerge and return, forming a "figure 8"-shaped structure--the embryo in the center with vascular loops extending outward over both poles. […] Following a lag period of around 15 minutes, the constriction of continuity between capillary and secondary vessels, generally on the "venous" side, was observed. Continued pulsatile blood flow progressed, resulting in a "swelling" of the blind tube, followed by a pinching off of the remaining connection and formation of an enclosed vascular sac resembling a "blood island." This process progressed until only the largest vessels remained intact.

HM = HM MTT assay; format: cell-based; details: Table II; read-out: HM MTT assay, Minimum Effective Concentration
[2] = test system: Xenopus tadpole (stage 59-60); test: Xenopus tadpole assay; format: in vivo, Xenopus laevis; details: 10 μg/ml; about 1 hour
B16 melanoma = test: suppression of B16 melanoma growth in C57B mice; format: in vivo, mouse; details: compound 1436 10 mg/kg/every 3 days alone
Experimental: The growth of B16 melanoma in C57B mice is dependent upon neovascularization.
Using the growth of B16 melanoma cells in C57B mice, a recognized model for the evaluation of inhibitors of angiogenesis on the growth of cancers, the effects of subcutaneous, intraperitoneal and oral administration of squalamine were evaluated.
Based on the idea that tumor growth involves both the clonal expansion of a malignant cell along with the development of a supporting vascular supply, a combination of compound 1436 with squalamine was tested to determine whether it would achieve a synergistic effect on solid tumor growth. This concept was evaluated in the B16 melanoma model.
Animals were implanted with B16 melanoma followed by treatment with compound 1436 or 1256 administered in a combined schedule or separately. […] Thus, a combination of these two compounds achieves a therapeutic benefit in tumors dependent on neovascularization that may prevent metastatic spread.

[3] = test system: Human coronary artery smooth muscle cells; test: proliferation of human coronary artery smooth muscle in vitro; format: cell-based; details: FIG. 15
From the text: (§1) As set forth in Table 7 below, all malignant tumors evaluated in tissue culture, endothelial cells and vascular smooth muscle cells were sensitive to inhibition. Thus, compound 1436 has application in the control of growth factor dependent proliferation of many types of tissue.
Aminosterols of the invention may also have utility in inhibiting the growth factor mediated proliferation of smooth muscle within the artery. Following coronary angioplasty, reocclusion commonly occurs, secondary to reparative proliferation of the vascular smooth muscle within the wall of the surgically manipulated blood vessel. This process generally takes place over the course of 7-10 days. To evaluate whether an agent could prevent the growth factor mediated proliferation of smooth muscle within the artery, compound 1436 was evaluated in vitro for its effect on the proliferation of human coronary artery smooth muscle. Results for compound 1436 are shown in FIG. 13, and those for squalamine are shown in FIG. 14, with FIG. 15 being a composite logarithmic plot.

[4] = test system: L1210 lymphoblastic leukemia; test: mouse L1210 leukemia model, survival; format: in vivo; details: highest dose, 10 mg/kg every 3 days i.p.
[5] = fasting blood glucose in mice; format: in vivo, mouse; details: intravenous; vs. Group 1
Experimental: To study the effect of steroid administrator or the NHE responsible for secretion of insulin, several of the aminosterols from shark liver were administered to fasting mice. Male CD-1 mice were assigned to one of four treatment groups. Whole blood glucose was tested using glucometer (Lifescan Glucometer II and One Touch test strips). Statistical analysis was via one-way analysis of variance (ANOVA) followed by subsequent Bonferonni's t-test.

[6] = growth and weight gain of C57B mice; format: in vivo, mouse; details: 10 mg/kg QTD i.p.; 6 doses, about 1 month
Experimental: Animals were dosed QTD (i.p.) starting on Day 1. […] Animals receiving 5 mg/kg QTD experienced about a 50% reduction in growth, compared to untreated controls, while animals receiving 1 mg/kg QTD were affected by about 10%. […] They appeared very much like hypophysectamized animals might appear.

[7] = arterial resistance in the rat after i.v. administration; format: in vivo
Experimental: A 200-g rat was catheterized in the right carotid artery, and the compound was introduced over a ten-second period to a total dosage of 5 mg/kg. Within 30 seconds, the mean arterial pressure had fallen from about 100 mm Hg to about 70 mm Hg, with a marked reduction in pulse pressure from about 40 mm to about 10 mm. […] If cardiac output was basically unaffected, reduction in blood pressure would have resulted principally from a reduction in system resistance.
At that time, 40 μg of noradrenaline was introduced.

rabbit NHE3 = rabbit NHE3 (Oryctolagus cuniculus, UniProt P26432); test: inhibition of rabbit NHE3 in transfected PS120 fibroblasts (internal pH, BCECF-AM); details: 10 μg/ml; acid-preloaded 40 mM NH4Cl
Experimental: Internal pH was measured either following acid loading or in the absence of an acid-loading challenge, with the results shown in FIGS. 1A and 1B.
Specifically, PS120 fibroblasts transfected with rabbit NHE3 were grown in supplemented Dulbecco's-modified Eagle's medium as described by Levine et al., J. Biol. Chem. 268, 1993, 25527-25535. […] For cells not acid-preloaded, the actual internal pH value was monitored as a function of time following addition of squalamine, with the results depicted in FIG. 1B.
PS120 fibroblasts transfected with rabbit NHE3 were grown and acid preloaded by exposure to 40 mM NH4 Cl as described above in conjunction with FIGS. 1A and 1B. Internal cellular pH changes expressed as the rate of pH recovery as a function of restored extracellular sodium ion concentration following exposure to 10 μg/ml of the compound were assayed with the fluorescent dye BCECF-AM as described above.

LLC = LLC MTT; format: cell-based; details: Lewis lung carcinoma; Table II; read-out: LLC MTT, Minimum Effective Concentration
[8] = test system: Human ovarian carcinoma SKOV3; test: growth inhibition of SKOV3; format: cell-based
From the text: as §1

Chain of rabbit NHE3 (P26432 30-832): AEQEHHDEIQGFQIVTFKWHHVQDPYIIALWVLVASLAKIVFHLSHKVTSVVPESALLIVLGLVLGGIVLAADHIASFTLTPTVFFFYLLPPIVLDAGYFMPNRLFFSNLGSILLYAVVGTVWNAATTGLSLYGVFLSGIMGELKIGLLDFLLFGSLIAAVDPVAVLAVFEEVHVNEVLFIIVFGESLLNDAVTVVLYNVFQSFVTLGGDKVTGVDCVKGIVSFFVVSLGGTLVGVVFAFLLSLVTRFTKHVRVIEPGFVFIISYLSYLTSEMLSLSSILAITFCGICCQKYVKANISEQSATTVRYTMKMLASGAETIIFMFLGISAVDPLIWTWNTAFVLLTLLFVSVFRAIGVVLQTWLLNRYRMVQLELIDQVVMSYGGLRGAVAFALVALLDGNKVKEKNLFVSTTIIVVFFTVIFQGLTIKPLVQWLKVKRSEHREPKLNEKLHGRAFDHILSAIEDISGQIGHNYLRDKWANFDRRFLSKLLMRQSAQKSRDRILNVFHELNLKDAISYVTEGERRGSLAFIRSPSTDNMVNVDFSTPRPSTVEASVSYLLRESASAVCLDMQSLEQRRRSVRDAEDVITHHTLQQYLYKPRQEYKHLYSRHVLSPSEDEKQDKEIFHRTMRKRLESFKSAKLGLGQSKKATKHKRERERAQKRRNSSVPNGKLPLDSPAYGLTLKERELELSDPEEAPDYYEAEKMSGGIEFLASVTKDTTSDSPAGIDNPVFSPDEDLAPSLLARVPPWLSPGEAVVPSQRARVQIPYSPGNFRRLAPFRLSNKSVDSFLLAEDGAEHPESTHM

CC(CCC(=O)O)[C@H]1CCC2C3C(CC[C@@]21C)[C@@]1(C)CC[C@@H](NCCCNCCCCN)CC1C[C@H]3O (single isomer, unassigned)
Chick embryo diss. assay, Minimum Effective Concentration ([1]; Table II): 0.01 µg | minimal effective concentration (HM): 58.6 µg/mL

CC(C)[C@@H](CC[C@@H](C)[C@H]1CC[C@H]2[C@@H]3[C@H](O)C[C@H]4C[C@@H](NCCCNCCCCNCCCN)CC[C@]4(C)[C@H]3CC[C@]12C)OS(=O)(=O)O [Compound 1436]
effect on vitelline capillaries / chick embryo ([1]; in vivo): about the same potency as squalamine | tadpole response [2]: common vascular occlusive effect; also recorded: Gradual reduction in overall activity; also recorded: Heart beat remained strong, suggesting nervous system depression; also recorded: Melanocytes over head and tail began to swell; also recorded: dramatic disruption of melanocytes over its head, trunk, and tail; also recorded: No effects are observed on epithelial cell integrity, vascular flow, erythrocyte volume, tissue integrity, muscle fiber striation, or GI tract activity | impact on tumor volume (B16 melanoma): no significant impact on tumor volume | suppression of growth of human coronary artery smooth muscle [3]: suppress in vitro the growth of human coronary artery smooth muscle | prolongation of life [4]: significant prolongation of life | fasting blood glucose effect [5]: caused hyperglycemia in mice | growth inhibition in mice [6]: growth was almost completely inhibited | reversibility of effect ([7]; 40 μg noradrenaline): readily reversible | persistence of effect ([7]; followed for 30 minutes): without significant change | inhibition of rabbit NHE3 (rabbit NHE3): inhibit rabbit NHE3

CC(C)CCC[C@@H](C)[C@H]1CC[C@H]2[C@@H]3CC[C@H]4C[C@@H](NCCCNCCCCNCCCN)CC[C@]4(C)[C@H]3CC[C@]12C [drawing 82]
minimal effective concentration (LLC): 3 µg/mL

CC(C)C(CO)(CC[C@@H](C)[C@H]1CC[C@H]2[C@@H]3[C@H](O)C[C@H]4C[C@@H](NCCCNCCCCN)CC[C@]4(C)[C@H]3CC[C@]12C)OS(=O)(=O)O (single isomer, unassigned) [Compound 1437]
tadpole response [2]: Epithelium covering the embryonic portions of the animal, such as the tail and antennae, began to slough off in sheets; also recorded: the larval skin was observed to shed off in a sheet | anticancer activity against SKOV3 [8]: anticancer activity against the human ovarian carcinoma, SKOV3 | fasting blood glucose effect [5]: caused hyperglycemia in mice
